In US20250367185A1, “TRANSLESION SYNTHESIS POLYMERASE INHIBITORS AND USES THEREOF” (THE UNIVERSITY OF VERMONT AND STATE AGRICULTURAL COLLEGE, priority 2022, published 2025):

Legend:
[1] = test system: SARS-COV-2 variants (alpha, beta, gamma, delta, BA.1, BA.2) and USA-WA1/2020; format: cell-based; settings: 10 μM, 48 hours, A549-ACE2+ cells
[2] = test system: SARS-COV-2 variants (alpha, beta, gamma, delta, BA.1, BA.2) and USA-WA1/2020; format: cell-based; settings: 10 μM, 48 hours, A549-ACE2+ cells; remark: listed apart in the source

CC(C)CC(=O)c1c(Nc2ccc(C(=O)O)cc2Cl)[nH]c2c(Cl)ccc([N+](=O)[O-])c2c1=O [Compound 1, 3-chloro-4-((8-chloro-3-(3-methylbutanoyl)-5-nitro-4-oxo-1,4-dihydroquinolin-2-yl)amino)benzoic acid]
viral mRNA levels [1]: reduces
percentage of viral nucleocapsid-positive cells [2]: reduces
